Measured values: US20150098905A1, “METHODS TO DETECT A FUNGAL CELL” (priority 2012, published 2015)
≈ marks a conversion by molar mass, not a printed value. Numbered stars: 1 amine (or outer) side, 2 acyl side, 3 side chain; on linkers, the order of the positions; unused ones are H or OH. Bridge positions count the residues as written; N and C are the ends. Square brackets hold non-standard residues; d marks the D form. Peptide text beside a SMILES is read from it. * marks the point of attachment. hTyr(3S-OH,4S-OH,3'-OSO3H) = N[C@H](C(=O)O)[C@H](O)[C@@H](O)c1ccc(O)c(OS(=O)(=O)O)c1; pTerphenylCO(4''-OnC5H11) = CCCCCOc1ccc(-c2ccc(-c3ccc(C(=O)*)cc3)cc2)cc1; Orn(4R-OH,5R-OH) = O=C([C@H](C[C@@H](O)[C@@H](O)N[*:3])N[*:1])[*:2]; hTyr(3S-OH,4S-OH) = N[C@H](C(=O)O)[C@H](O)[C@@H](O)c1ccc(O)cc1; Pro(3S-OH,4S-Me) = C[C@H]1CN[C@H](C(=O)O)[C@H]1O; X1 = CCCCCOc1ccc(-c2cc(-c3ccc(C(=O)*)cc3)no2)cc1; Gln(3R-OH) = NC(=O)C[C@@H](O)[C@H](N)C(=O)O; Hyp = O=C(O)[C@@H]1C[C@@H](O)CN1

Columns and labels:
[1] = system: C. albicans and A. fumigatus cells; assay: Pretreatment with unlabeled antifungal drug followed by probe labeling; format: cell-based, Candida albicans, Aspergillus fumigatus; conditions: for effect of pretreatment on CSF-BOD labeling: pretreatment C. albicans 1 h, A. fumigatus 2 h, azoles at one dilution below the MIC, then CSF-BOD; for effect of pretreatment on labeling of cells by POS-BOD: pretreatment with unlabeled drug, then POS-BOD
Excerpt: To illustrate the potential of CSF-BOD and POS-BOD for visualizing fungal cells, the reagent was used to probe for the presence of Candida and Aspergillus species in a variety of matrices including solid and liquid growth media. The clinical A. fumigatus wild type strain R21 and Candida albicans ATCC strain 90028 were used for all the experiments. For Aspergillus, one drop of yeast extract peptone dextrose (YPD) agar was placed in the upper right corner of each well of a 15-well multitest slide followed by the addition of 10 μl of saline containing 105 conidia of R21. The slide was placed in a sterile petri dish with distilled water to provide a moist environment and incubated in a 37° C. incubator for 10-16 hours to facilitate germination and growth of hyphal elements. A 10 μl aliquot of CSF-BOD (170 ng/ml) or POS-BOD (150 ng/ml) was added to each well and incubated for 6 h at 37° C., followed by washing 3 times with sterile water and drying by vacuum. For Candida, an overnight culture of C. albicans was grown, washed by centrifugation and resuspended in dH2O. The yeast cells were added to RPMI and incubated at 200 rpm for 1 h at 37° C. to form germ tubes before being washed and resuspended in a 1 ml solution of CSF-BOD (120 ng/mil) or POS-BOD (150 ng/ml). The cells with drug were incubated again at 200 rpm for 1 h at 37° C., washed and resuspended in 50 ml of dH2O. A 15 well slide was prepared using a poly-L-lysine to tightly adhere cells to the wells. A 10 μL aliquot of Candida cells was placed on each well and incubated for 10 minutes, aspirated off, and 1 μL Slow Fade Antifade reagent was added to prolong the fluorescent life and moisture level of the cells on the each slide. Each slide was observed under 100× magnification with the total internal reflection objective lens (TIRF) of a Nikon Eclipse 90i fluorescent microscope. The 15 wells of the slides were examined individually using Volocity 3D Image Analysis Software (PerkinElmer). Individual cells, hyphal elements and clusters of cells were visualized, analyzed, and captured in bright field lighting and repeated under a Green Fluorescent Protein (GFP) light setting.

C. albicans = assay: Antifungal activity (MIC) of labeled and unlabeled caspofungin; format: cell-based; conditions: Candida albicans
Experimental: A derivative of CSF using BODIPY (BOD), an analog that resembles fluorescein but is smaller and more hydrophobic, was produced to test the CSF-BOD with various fungal pathogens. BODIPY-succinimidate was incubated with pure CSF in the presence of triethylamine as proton acceptor in DMF. The crude product was purified by TLC silica gel chromatography and characterized using mass spectroscopy, fluorescence and UV spectroscopy. The modified agent retained its specificity and sensitivity to the fungal target. […] BODIPY coupled to posaconazole (POS) was formed by modifying a single hydroxyl group of posaconazole with succinic anhydride (FIG. 6).

[2] = system: A. fumigatus wild type strain R21; assay: Cell labeling with fluorescent probe, fluorescence microscopy; format: cell-based, Aspergillus fumigatus; conditions: control, species not given
Excerpt: To illustrate the potential of CSF-BOD and POS-BOD for visualizing fungal cells, the reagent was used to probe for the presence of Candida and Aspergillus species in a variety of matrices including solid and liquid growth media. The clinical A. fumigatus wild type strain R21 and Candida albicans ATCC strain 90028 were used for all the experiments. For Aspergillus, one drop of yeast extract peptone dextrose (YPD) agar was placed in the upper right corner of each well of a 15-well multitest slide followed by the addition of 10 μl of saline containing 105 conidia of R21. The slide was placed in a sterile petri dish with distilled water to provide a moist environment and incubated in a 37° C. incubator for 10-16 hours to facilitate germination and growth of hyphal elements. A 10 μl aliquot of CSF-BOD (170 ng/ml) or POS-BOD (150 ng/ml) was added to each well and incubated for 6 h at 37° C., followed by washing 3 times with sterile water and drying by vacuum. For Candida, an overnight culture of C. albicans was grown, washed by centrifugation and resuspended in dH2O. […] Individual cells, hyphal elements and clusters of cells were visualized, analyzed, and captured in bright field lighting and repeated under a Green Fluorescent Protein (GFP) light setting.

Question: How did the “effect of pretreatment on CSF-BOD labeling” value (shortened to “effect … on CSF-BOD labeling”) [1] turn out when CCCCCOc1ccc(-c2ccc(-c3ccc(C(=O)N[C@H]4C[C@@H](O)[C@@H](O)NC(=O)[C@@H]5[C@@H](O)[C@@H](C)CN5C(=O)[C@H]([C@@H](C)O)NC(=O)[C@H]([C@H](O)[C@@H](O)c5ccc(O)cc5)NC(=O)[C@@H]5C[C@@H](O)CN5C(=O)[C@H]([C@@H](C)O)NC4=O)cc3)cc2)cc1 [anidulafungin] ({pTerphenylCO(4''-OnC5H11)}-[Orn(4R-OH,5R-OH)]T[Hyp][hTyr(3S-OH,4S-OH)]T[Pro(3S-OH,4S-Me)]; lactam 1-C) was run?
Answer: eliminated the labeling

Question: Which results are given for CC[C@H](C)C[C@H](C)CCCCCCCCC(=O)N[C@H]1C[C@@H](O)[C@@H](NCCN)NC(=O)[C@@H]2[C@@H](O)CCN2C(=O)[C@H]([C@H](O)CCN)NC(=O)[C@H]([C@H](O)[C@@H](O)c2ccc(O)cc2)NC(=O)[C@@H]2C[C@@H](O)CN2C(=O)[C@H]([C@@H](C)O)NC1=O [caspofungin]?
Answer: MIC (C. albicans): 0.06 µg/mL (≈ 0.0549 µM); labeling by unconjugated drug or dye alone [2]: failed to produce any labeling; effect of pretreatment on CSF-BOD labeling [1]: intensified the fluorescence; effect of pretreatment on labeling of cells by POS-BOD [1]: little effect

Question: Which “effect … on CSF-BOD labeling” value [1] does the source give for OC(Cn1cncn1)(Cn1cncn1)c1ccc(F)cc1F [fluconazole] here?
Answer: no effect

Question: CCC(C)n1ncn(-c2ccc(N3CCN(c4ccc(OCC5COC(Cn6cncn6)(c6ccc(Cl)cc6Cl)O5)cc4)CC3)cc2)c1=O (stereo not shown) [itraconazole] was tested. Which “effect … on CSF-BOD labeling” value [1] did it give?
Answer: no effect

Question: CCCCCOc1ccc(-c2cc(-c3ccc(C(=O)N[C@H]4C[C@@H](O)[C@@H](O)NC(=O)[C@@H]5[C@@H](O)[C@@H](C)CN5C(=O)[C@H]([C@H](O)CC(N)=O)NC(=O)[C@H]([C@H](O)[C@@H](O)c5ccc(O)c(OS(=O)(=O)O)c5)NC(=O)[C@@H]5C[C@@H](O)CN5C(=O)[C@H]([C@@H](C)O)NC4=O)cc3)no2)cc1 [micafungin] (X1-[Orn(4R-OH,5R-OH)]T[Hyp][hTyr(3S-OH,4S-OH,3'-OSO3H)][Gln(3R-OH)][Pro(3S-OH,4S-Me)]; lactam 1-C) was tested. Which “effect … on CSF-BOD labeling” value [1] did it give?
Answer: eliminated the labeling

Question: What does the source list for CC[C@@H]([C@H](C)O)n1ncn(-c2ccc(N3CCN(c4ccc(OC[C@@H]5CO[C@@](Cn6cncn6)(c6ccc(F)cc6F)C5)cc4)CC3)cc2)c1=O [posaconazole]?
Answer: effect of pretreatment on CSF-BOD labeling [1]: no effect; effect of pretreatment on labeling of cells by POS-BOD [1]: greatly diminished or eliminated the fluorescence signal

Question: C[C@@H](c1ncncc1F)[C@](O)(Cn1cncn1)c1ccc(F)cc1F [voriconazole] was tested. Which “effect … on CSF-BOD labeling” value [1] did it give?
Answer: no effect

Question: What about the “effect of pretreatment on labeling of cells by POS-BOD” value [1] of the same molecule?
Answer: greatly diminished or eliminated the fluorescence signal

Question: Which “labeling by unconjugated drug or dye alone” value [2] does the source give for boron-dipyrromethene [BODIPY] here?
Answer: failed to produce any labeling
